Test [1] addresses T1, Full length Cereblon protein (6His tev Cereblon/6His tev DDB1ΔBPB) (Homo sapiens, UniProt Q96SW2).
T1 construct: Full length Cereblon protein (6His tev Cereblon/6His tev DDB1ΔBPB) was expressed and purified from E. coli; made in house; host or cells: E. coli
The test is described as follows: Cereblon Binding Assay (TR-FRET). The settings on record: 5 nM protein, 50 nM Alexa647-lenalidomide ligand, read-out: Mean pIC50 (converted). The procedure: Full length Cereblon protein (6His tev Cereblon/6His tev DDB1ΔBPB) was expressed and purified from E. coli to monitor compound binding. […] A Thermo Scientific Multidrop Combi was used to dispense 5 μL of 10 nM protein in assay buffer of 50 mM
HEPES, 150 mM NaCl, 5% glycerol, 1 mM DTT and 1 mM CHAPS, pH 7.4, in the presence of 100 nM fluorescent ligand (Final assay concentrations of 5 nM protein and 50 nM ligand). After equilibrating for 15 min in the dark at room temperature a 5 μL addition was made of 2 nM europium chelate labelled anti-6His antibody (Perkin Elmer, W1024, AD0111) in assay buffer (1 nM FAC). […] TR-FRET ratio data was normalised to high (DMSO) and low (reaction in the absence of protein) controls and pIC50 values determined for each of the compounds tested by fitting the fluorescence ratio data to a four parameter model:
[formula] • where ‘a’ is the minimum, ‘b’ is the maximum, ‘c’ is the pIC50 and ‘d’ is the Hill slope.

The next test deals with T2, Androgen Receptor (Homo sapiens, UniProt P10275, T878A).
T2 construct: the AR gene was modified, using CRISPR/Cas9 editing, so the expressed AR protein included an 11 amino acid HiBiT tag; endogenous in cells; host or cells: clonal LnCaP-derived line, AR gene edited by CRISPR/Cas9
T2 sequence (P10275 whole entry T878A): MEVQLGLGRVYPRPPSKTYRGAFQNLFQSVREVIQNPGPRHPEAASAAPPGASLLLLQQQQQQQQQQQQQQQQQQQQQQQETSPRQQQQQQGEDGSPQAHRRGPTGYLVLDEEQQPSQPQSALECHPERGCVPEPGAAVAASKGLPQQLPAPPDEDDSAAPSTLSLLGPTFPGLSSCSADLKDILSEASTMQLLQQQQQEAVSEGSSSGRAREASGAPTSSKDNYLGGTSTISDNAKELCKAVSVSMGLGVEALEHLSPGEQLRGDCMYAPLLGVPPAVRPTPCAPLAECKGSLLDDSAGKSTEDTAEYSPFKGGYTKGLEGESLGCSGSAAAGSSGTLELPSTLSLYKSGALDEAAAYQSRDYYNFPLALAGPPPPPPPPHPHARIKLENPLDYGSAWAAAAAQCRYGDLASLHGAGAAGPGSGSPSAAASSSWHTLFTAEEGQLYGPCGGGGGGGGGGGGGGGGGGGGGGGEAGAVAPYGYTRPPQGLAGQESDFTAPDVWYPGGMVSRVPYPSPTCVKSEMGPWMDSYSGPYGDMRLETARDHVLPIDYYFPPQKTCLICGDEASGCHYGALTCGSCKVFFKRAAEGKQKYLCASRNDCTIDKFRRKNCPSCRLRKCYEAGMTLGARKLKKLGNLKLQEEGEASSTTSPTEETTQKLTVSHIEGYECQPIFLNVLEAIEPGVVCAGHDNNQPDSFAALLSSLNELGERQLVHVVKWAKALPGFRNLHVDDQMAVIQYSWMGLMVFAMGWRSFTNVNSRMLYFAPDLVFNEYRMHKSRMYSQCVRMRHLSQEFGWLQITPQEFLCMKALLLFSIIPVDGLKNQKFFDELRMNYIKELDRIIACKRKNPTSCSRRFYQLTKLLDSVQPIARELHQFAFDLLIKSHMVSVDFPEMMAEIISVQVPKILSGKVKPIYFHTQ
T2 sequence (Q96SW2 whole entry partner): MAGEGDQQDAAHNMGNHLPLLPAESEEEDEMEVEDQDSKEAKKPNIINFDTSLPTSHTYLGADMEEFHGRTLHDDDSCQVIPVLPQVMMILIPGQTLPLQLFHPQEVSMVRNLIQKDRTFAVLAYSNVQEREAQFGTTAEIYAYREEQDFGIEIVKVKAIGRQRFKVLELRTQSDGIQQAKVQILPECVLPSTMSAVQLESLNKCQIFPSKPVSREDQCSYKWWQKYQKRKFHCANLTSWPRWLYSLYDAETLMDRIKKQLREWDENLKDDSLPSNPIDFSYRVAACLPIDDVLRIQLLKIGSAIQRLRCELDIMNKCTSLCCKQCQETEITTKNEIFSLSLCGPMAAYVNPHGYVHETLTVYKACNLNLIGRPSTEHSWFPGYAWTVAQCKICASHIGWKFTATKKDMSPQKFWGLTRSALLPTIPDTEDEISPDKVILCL
T2 sequence (Q16531 whole entry partner): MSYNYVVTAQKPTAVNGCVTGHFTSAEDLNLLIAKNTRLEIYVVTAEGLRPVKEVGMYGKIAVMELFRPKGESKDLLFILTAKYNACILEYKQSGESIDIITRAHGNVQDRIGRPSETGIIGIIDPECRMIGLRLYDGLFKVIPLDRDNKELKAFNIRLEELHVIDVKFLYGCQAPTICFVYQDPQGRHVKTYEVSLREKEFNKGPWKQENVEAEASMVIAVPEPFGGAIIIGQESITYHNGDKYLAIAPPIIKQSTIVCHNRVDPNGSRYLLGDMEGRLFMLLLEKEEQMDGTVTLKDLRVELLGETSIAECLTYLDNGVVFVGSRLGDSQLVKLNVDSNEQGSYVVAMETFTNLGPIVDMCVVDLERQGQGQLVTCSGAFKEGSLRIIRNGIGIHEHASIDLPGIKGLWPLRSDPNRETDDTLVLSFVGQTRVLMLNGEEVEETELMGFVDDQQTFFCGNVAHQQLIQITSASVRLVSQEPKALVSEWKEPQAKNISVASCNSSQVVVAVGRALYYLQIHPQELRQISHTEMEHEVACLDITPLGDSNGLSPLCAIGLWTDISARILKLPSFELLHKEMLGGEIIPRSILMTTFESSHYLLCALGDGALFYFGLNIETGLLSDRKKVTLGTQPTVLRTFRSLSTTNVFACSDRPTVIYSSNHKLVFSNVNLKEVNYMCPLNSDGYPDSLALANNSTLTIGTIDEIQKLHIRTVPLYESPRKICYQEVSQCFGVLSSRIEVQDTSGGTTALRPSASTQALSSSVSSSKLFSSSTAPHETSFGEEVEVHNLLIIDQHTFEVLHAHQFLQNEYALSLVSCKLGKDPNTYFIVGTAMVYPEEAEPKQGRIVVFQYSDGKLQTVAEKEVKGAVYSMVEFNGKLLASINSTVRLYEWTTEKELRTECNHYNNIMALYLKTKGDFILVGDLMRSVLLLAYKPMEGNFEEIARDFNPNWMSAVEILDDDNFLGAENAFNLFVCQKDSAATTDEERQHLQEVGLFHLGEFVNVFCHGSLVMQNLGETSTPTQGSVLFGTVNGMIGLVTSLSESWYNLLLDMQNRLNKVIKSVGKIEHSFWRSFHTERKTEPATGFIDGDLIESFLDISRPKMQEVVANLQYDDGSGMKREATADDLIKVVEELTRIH
Description: Androgen Receptor Degradation Assay (Nano-Glo HiBiT). The test is classed as cell-based. The settings on record: LNCaP, 18 h, HiBiT-tagged AR in human LnCaP cells, read-out: mean asymptote max. In a few lines:
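LnCaP cells with CRISPR-knocked-in N-terminal HiBiT-tagged AR (10,000/well) treated 18 h at 37 °C with PROTACs over 11 threefold concentrations; lytic HiBiT luminescence normalised to DMSO (0%) and cell-free (100%) controls. Relative DC50 = 4-parameter fit inflection; absolute DC50 = 50% degradation interpolation; Dmax = maximum observed degradation.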

Structures can show the parent of a compound that is named as a salt.

T1 sequence (Q96SW2 whole entry, stated change not applied): as the sequence (Q96SW2 whole entry partner) above

As for `Cn1ncc2c(N3CCC(=O)NC3=O)cccc21` [ECB46, 1-(1-Methyl-1H-indazol-4-yl)dihydropyrimidine-2,4(1H,3H)-dione], in test [1], the IC50 is 309 nM.
As to `O=C1CCN(c2nccc3c2ccn3C2CCNCC2)C(=O)N1` [ECB25, 1-(1-(piperidin-4-yl)-1H-pyrrolo[3,2-c]pyridin-4-yl)dihydropyrimidine-2,4(1H,3H)-dione], the IC50 in test [1] was 229 nM.
On the same count and under the same terms, in the case of `O=C1CCN(c2nccc3c2cnn3C2CCNCC2)C(=O)N1` [ECB7, 1-(1-(piperidin-4-yl)-1H-pyrazolo[4,3-c]pyridin-4-yl)dihydropyrimidine-2,4(1H,3H)-dione] it was 79.4 nM.
`CCn1ccc2c(N3CCC(=O)NC3=O)cncc21` [ECB51, 1-(1-Ethyl-1H-pyrrolo[2,3-c]pyridin-4-yl)dihydropyrimidine-2,4(1H,3H)-dione]: the IC50 in test [1] was 25.1 nM.
As to `O=C1CCN(c2cc(C(F)(F)F)cc3c2ccn3C2CCNCC2)C(=O)N1` [ECB37, 1-(1-(piperidin-4-yl)-6-(trifluoromethyl)-1H-indol-4-yl)dihydropyrimidine-2,4(1H,3H)-dione], the IC50 in test [1] is 55 nM.
Still for that read-out and setting: in the case of `CC(C)n1ccc2c(N3CCC(=O)NC3=O)cc(C(=O)N(C)C3CCNCC3)cc21` [ECB15, 4-(2,4-Dioxotetrahydropyrimidin-1(2H)-yl)-1-isopropyl-N-methyl-N-(piperidin-4-yl)-1H-indole-6-carboxamide] it was 25.1 nM; in that of `O=C1CCN(c2cncc3c2cnn3C2CCNCC2)C(=O)N1` [ECB8, 1-(1-(Piperidin-4-yl)-1H-pyrazolo[3,4-c]pyridin-4-yl)dihydropyrimidine-2,4(1H,3H)-dione], 251 nM; in that of `CCn1ccc2c(N3CCC(=O)NC3=O)cccc21` [ECB50, 1-(1-Ethyl-1H-indol-4-yl)dihydropyrimidine-2,4(1H,3H)-dione], 24 nM.
In the case of `O=C1CCN(c2ccnc3c2cnn3C2CCNCC2)C(=O)N1` [ECB19, 1-(1-(piperidin-4-yl)-1H-pyrazolo[3,4-b]pyridin-4-yl)dihydropyrimidine-2,4(1H,3H)-dione], in test [1], the IC50 was 380 nM.
With `O=C1CCN(c2cc(C(F)(F)F)cc3c2cnn3C2CCNCC2)C(=O)N1` [ECB30, 1-(1-(piperidin-4-yl)-6-(trifluoromethyl)-1H-indazol-4-yl)dihydropyrimidine-2,4(1H,3H)-dione], the IC50 in test [1] was 245 nM.
Still for that read-out and setting: in the case of `O=C1CCN(c2ncnc3c2ccn3C2CCNCC2)C(=O)N1` [ECB17, 1-(7-(piperidin-4-yl)-7H-pyrrolo[2,3-d]pyrimidin-4-yl)dihydropyrimidine-2,4(1H,3H)-dione] it was 316 nM.
Take `Cn1ccc2c(N3CCC(=O)NC3=O)cccc21` [ECB45, 1-(1-Methyl-1H-indol-4-yl)dihydropyrimidine-2,4(1H,3H)-dione]: the IC50 in test [1] was 100 nM.
On the same count and under the same terms, in the case of `COCCn1ccc2c(N3CCC(=O)NC3=O)cccc21` [ECB48, 1-(1-(2-Methoxyethyl)-1H-indol-4-yl)dihydropyrimidine-2,4(1H,3H)-dione] it was 35.5 nM; in that of `O=C1CCN(c2cccc3c2cnn3C2CCNCC2)C(=O)N1` [ECB18, 1-(1-(Piperidin-4-yl)-1H-indazol-4-yl)dihydropyrimidine-2,4(1H,3H)-dione], 10 nM.
As to `O=C1CCN(c2cccc3c2ccn3C[C@]2(F)CCCNC2)C(=O)N1` [ECB29, (S)-1-(1-((3-fluoropiperidin-3-yl)methyl)-1H-indol-4-yl)dihydropyrimidine-2,4(1H,3H)-dione], in test [1], the IC50 was 120 nM.
Still for that read-out and setting: in the case of `O=C1CCN(c2cncc3c2ccn3C2CCNCC2)C(=O)N1` [ECB6, 1-(1-(piperidin-4-yl)-1H-pyrrolo[2,3-c]pyridin-4-yl)dihydropyrimidine-2,4(1H,3H)-dione] it was 25.1 nM.
With `O=C1CCN(c2cc(F)cc3c2ccn3C2CCNCC2)C(=O)N1` [ECB44, 1-(6-Fluoro-1-(piperidin-4-yl)-1H-indol-4-yl)dihydropyrimidine-2,4(1H,3H)-dione], in test [1], the IC50 is 33.1 nM.
On the same count and under the same terms, in the case of `CC(C)n1ccc2c(N3CCC(=O)NC3=O)cc(C(=O)N3CCNCC3)cc21` [ECB11, 1-(1-isopropyl-6-(piperazine-1-carbonyl)-1H-indol-4-yl)dihydropyrimidine-2,4(1H,3H)-dione] it was 2.51 nM; in that of `Cn1ccc2c(N3CCC(=O)NC3=O)nccc21` [ECB47, 1-(1-Methyl-1H-pyrrolo[3,2-c]pyridin-4-yl)dihydropyrimidine-2,4(1H,3H)-dione], 575 nM; in that of `O=C1CCN(c2cc(Cl)cc3c2ccn3C2CCNCC2)C(=O)N1` [ECB9, 1-(6-Chloro-1-(piperidin-4-yl)-1H-indol-4-yl)dihydropyrimidine-2,4(1H,3H)-dione], 7.94 nM.
As for `Cc1ccc(N2CCC(=O)NC2=O)c2ccn(C)c12` [ECB49, 1-(1,7-Dimethyl-1H-indol-4-yl)dihydropyrimidine-2,4(1H,3H)-dione], in test [1], the IC50 was 20 nM.
The same measure, in the same setting: in the case of `CC(C)n1ccc2c(N3CCC(=O)NC3=O)cc(C(=O)N(C)CC3CCNCC3)cc21` [ECB16, 4-(2,4-Dioxotetrahydropyrimidin-1(2H)-yl)-1-isopropyl-N-methyl-N-(piperidin-4-ylmethyl)-1H-indole-6-carboxamide] it was 31.6 nM.
Take `C[C@@H]1CN(C(=O)Nc2cnc(N3CCC(CN4CCC(n5ccc6c(N7CCC(=O)NC7=O)cccc65)CC4)CC3)nc2)[C@@H](C)CN1c1ccc(C#N)c(Cl)c1` (racemic) [EAR114, rac-(trans)-4-(3-Chloro-4-cyanophenyl)-N-(2-(4-((4-(4-(2,4-dioxotetrahydropyrimidin-1(2H)-yl)-1H-indol-1-yl)piperidin-1-yl)methyl)piperidin-1-yl)pyrimidin-5-yl)-2,5-dimethylpiperazine-1-carboxamide]: the Dmax at Androgen Receptor is at least 50%.
Same read-out and setting: in the case of `N#Cc1ccc(O[C@H]2CC[C@H](NC(=O)c3ccc(N4CCC(CN5CCC(n6ncc7c(N8CCC(=O)NC8=O)cccc76)CC5)CC4)nc3)CC2)cc1C(F)(F)F` [EAR40, N-((1r,4r)-4-(4-Cyano-3-(trifluoromethyl)phenoxy)cyclohexyl)-6-(4-((4-(4-(2,4-dioxotetrahydropyrimidin-1(2H)-yl)-1H-indazol-1-yl)piperidin-1-yl)methyl)piperidin-1-yl)nicotinamide hydrochloride] it was at least 50%; in that of `N#Cc1ccc(O[C@H]2CC[C@H](NC(=O)c3ccc(N4CCC(N5CCC(Cn6ccc7c(N8CCC(=O)NC8=O)cccc76)CC5)CC4)nn3)CC2)cc1Cl` [EAR27, N-((1r,4r)-4-(3-Chloro-4-cyanophenoxy)cyclohexyl)-6-(4-((4-(2,4-dioxotetrahydropyrimidin-1(2H)-yl)-1H-indol-1-yl)methyl)-[1,4′-bipiperidin]-1′-yl)pyridazine-3-carboxamide hydrochloride], at least 50%; in that of `CC1(C)C(=O)N(c2ccc(C#N)c(C(F)(F)F)c2)C(=S)N1c1ccc(N2CCC(CN3CCC(n4ncc5c(N6CCC(=O)NC6=O)cccc54)CC3)CC2)cc1` [EAR95, 4-(3-(4-(4-((4-(4-(2,4-Dioxotetrahydropyrimidin-1(2H)-yl)-1H-indazol-1-yl)piperidin-1-yl)methyl)piperidin-1-yl)phenyl)-4,4-dimethyl-5-oxo-2-thioxoimidazolidin-1-yl)-2-(trifluoromethyl)benzonitrile], at least 50%.
Take `C[C@@H]1CN(c2ccc(C#N)c(Cl)c2)[C@@H](C)CN1C(=O)Nc1ccc(OCCCCN2CCC(n3ccc4c(N5CCC(=O)NC5=O)cccc43)CC2)nc1` [EAR109, (2R,5S)-4-(3-Chloro-4-cyanophenyl)-N-(6-(4-(4-(4-(2,4-dioxotetrahydropyrimidin-1(2H)-yl)-1H-indol-1-yl)piperidin-1-yl)butoxy)pyridin-3-yl)-2,5-dimethylpiperazine-1-carboxamide]: on Androgen Receptor, the Dmax is at least 50%.
The same measure, in the same setting: in the case of `CC(C)n1ccc2c(N3CCC(=O)NC3=O)cc(C(=O)N(C)CC3CCN(C4CCN(c5ccc(N6C(=S)N(c7ccc(C#N)c(C(F)(F)F)c7)C(=O)C6(C)C)cc5)CC4)CC3)cc21` [EAR88, N-((1′-(4-(3-(4-Cyano-3-(trifluoromethyl)phenyl)-5,5-dimethyl-4-oxo-2-thioxoimidazolidin-1-yl)phenyl)-[1,4′-bipiperidin]-4-yl)methyl)-4-(2,4-dioxotetrahydropyrimidin-1(2H)-yl)-1-isopropyl-N-methyl-1H-indole-6-carboxamide formate] it was at least 50%; in that of `CC1(C)C(=O)N(c2ccc(C#N)c(C(F)(F)F)c2)C(=S)N1c1ccc(OCCCN2CCC(n3ccc4c(N5CCC(=O)NC5=O)cncc43)CC2)cc1` [EAR104, 4-(3-(4-(3-(4-(4-(2,4-Dioxotetrahydropyrimidin-1(2H)-yl)-1H-pyrrolo[2,3-c]pyridin-1-yl)piperidin-1-yl)propoxy)phenyl)-4,4-dimethyl-5-oxo-2-thioxoimidazolidin-1-yl)-2-(trifluoromethyl)benzonitrile], at least 50%.

Values taken from patent publication US20250205344A1, “2,4-DIOXOTETRAHYDROPYRIMIDINYL DERATIVES AS DEGRONS IN PROTACS” (GLAXOSMITHKLINE INTELLECTUAL PROPERTY DEVELOPMENT LIMITED, priority 2022, published 2025).
